Results as given in patent JP2011231022A, “イミダゾロン誘導体” (Ajinomoto Co Inc, priority 2010, dated 2011).
Where two headings read alike, the source gives them in different places.

Key:
[1] = tested on: rat isolated blood vessel (ラット摘出血管); assay: EC50 of vasorelaxation in phenylephrine-precontracted isolated rat aorta rings (Example 2); format: cell-based
[2] = Oral absorption in fasted male ICR mice, plasma concentration by LC/MS (Example 7); format: in vivo; settings: mouse (ICR male, fasted), 100 mg/kg oral
[3] = tested on: phenylephrine-induced hypertensive model rat (フェニレフリン昇圧モデルラット); assay: Hypotensive action in phenylephrine-induced hypertensive model rats (Example 8); format: in vivo; settings: Wistar male rat; 40 mg/kg intravenous; phenylephrine 75 μg/kg/min
[4] = tested on: aorta ring (大動脈リング); assay: Endothelium-derived NO mechanism study in isolated rat aorta rings: endothelium removal and inhibitors (Example 3); format: cell-based; settings: for relaxation of phenylephrine contraction with C-PTIO: NO scavenger C-PTIO 300 μM; for relaxation of phenylephrine contraction with C-PTIO / relaxation of phenylephrine contraction with L-NAME / relaxation of phenylephrine contraction with indomethacin / relaxation of phenylephrine contraction with ODQ: 15 min pretreatment; for relaxation of phenylephrine contraction with L-NAME: NOS inhibitor L-NAME 100 μM; for vasorelaxing action after endothelium removal: aorta ring with endothelium mechanically removed; for relaxation of phenylephrine contraction with indomethacin: cyclooxygenase inhibitor indomethacin 10 μM; for relaxation of phenylephrine contraction with ODQ: soluble guanylate cyclase inhibitor ODQ 1 μM
[5] = tested on: aorta ring (大動脈リング); assay: Involvement of PI3K in relaxation of isolated rat aorta rings, wortmannin pretreatment (Example 4); format: cell-based; settings: for relaxation rate: wortmannin (WO) 200 nM, 15 min pretreatment
[6] = tested on: Akt serine 473 residue (Aktセリン473残基); assay: Phosphorylation of Akt serine 473 in isolated rat thoracic aorta rings (Examples 5 and 6); format: cell-based; settings: 5 min; for enhancement of Akt serine 473 phosphorylation: without wortmannin
[7] = tested on: eNOS serine 1177 residue (eNOSセリン1177残基); assay: Phosphorylation of eNOS serine 1177 in isolated rat thoracic aorta rings (Examples 5 and 6); format: cell-based; settings: 5 min; for enhancement of eNOS serine 1177 phosphorylation: without wortmannin
[8] = tested on: rat isolated blood vessel, thoracic aorta ring (ラット摘出血管、大動脈リング); assay: Vasorelaxation of phenylephrine-precontracted isolated rat thoracic aorta rings (Example 1, screening); format: cell-based; settings: 100 μM; 1 μM phenylephrine precontraction; endothelium intact
[9] = 100〜500 μM, wortmannin (WO) 200 nM, 20 min pretreatment
[10] = concentration giving 50% relaxation of phenylephrine contraction, 1〜100 μM, logistic method, read-out: EC50
[11] = 100 μM or 300 μM, wortmannin (WO) pretreatment

## CC1N=C(NCCC[C@H](N)C(=O)O)NC1=O (stereo partly shown) [I−1, Nδ−(5−ヒドロ−5−メチル−4−イミダゾロン−2−イル)−L−オルニチン]
[1]
  EC50: 13 µM
[2]; at 15 min after dosing, read-out: maximum plasma concentration
  Cmax at 0.25 h: 174 µM
[2]; read-out: time of maximum plasma concentration (converted)
  Tmax: 15 min
[3]
  maximum decrease of mean blood pressure: 12.7 mmHg
  time from start of administration to onset of hypotensive action: ~1 min
[4]
  relaxation of phenylephrine contraction with C-PTIO: 血管の弛緩が大幅に減弱した
  relaxation of phenylephrine contraction with L-NAME: 血管の弛緩がほとんど見られなかった
  vasorelaxing action after endothelium removal: 完全に消失した
  relaxation of phenylephrine contraction with indomethacin: 血管の弛緩に全く影響を与えなかった
  relaxation of phenylephrine contraction with ODQ: 血管の弛緩が大幅に減弱した
[5]; 50 μM
  relaxation rate: 10±3%
[5]; Rattus norvegicus, read-out: relaxation rate
  inhibition at 50 µM: 93 ± 3%

## CC1(CO)N=C(NCCC[C@H](N)C(=O)O)NC1=O (stereo partly shown) [I−2, Nδ−(5−メチル−5−ヒドロキシメチル−4−イミダゾロン−2−イル)−L−オルニチン]
[6]; 100〜500 μM
  enhancement of Akt serine 473 phosphorylation: Aktセリン473残基のリン酸化亢進作用を示した
[6]; [9]
  Akt serine 473 phosphorylation after wortmannin pretreatment: 完全に抑制され
[7]; 100〜500 μM
  enhancement of eNOS serine 1177 phosphorylation: 濃度依存的にeNOSセリン1177残基のリン酸化亢進作用を示した
[7]; [9]
  eNOS serine 1177 phosphorylation after wortmannin pretreatment: 完全に抑制された

## N[C@@H](CCCNC1=NC(CCO)C(=O)N1)C(=O)O (stereo partly shown) [I−3, Nδ−[5−ヒドロ−5−(2−ヒドロキシエチル)−4−イミダゾロン−2−イル]−L−オルニチン]
[6]; 100〜500 μM
  enhancement of Akt serine 473 phosphorylation: Aktセリン473残基のリン酸化亢進作用を示した
[6]; [9]
  Akt serine 473 phosphorylation after wortmannin pretreatment: 完全に抑制され
[1]; [10]
  EC50: 71 µM
[4]
  relaxation of phenylephrine contraction with C-PTIO: 血管の弛緩が大幅に減弱した
  relaxation of phenylephrine contraction with L-NAME: 血管の弛緩がほとんど見られなかった
  vasorelaxing action after endothelium removal: 完全に消失した
  relaxation of phenylephrine contraction with indomethacin: 血管の弛緩に全く影響を与えなかった
  relaxation of phenylephrine contraction with ODQ: 血管の弛緩が大幅に減弱した
[5]; 100 μ (so in the source)
  relaxation rate: 3±3%
[5]; Rattus norvegicus, 100 μ (so in the source), untreated control (no wortmannin), read-out: relaxation rate
  inhibition at 100 µM: 62 ± 8%
[7]; 100〜500 μM
  enhancement of eNOS serine 1177 phosphorylation: 濃度依存的にeNOSセリン1177残基のリン酸化亢進作用を示した
[7]; [9]
  eNOS serine 1177 phosphorylation after wortmannin pretreatment: 完全に抑制された

## N[C@@H](CCCNC1=NC(CC(O)C(O)CO)C(=O)N1)C(=O)O (stereo partly shown) [I−7, Nδ−[5−ヒドロ−5−(2,3,4−トリヒドロキシブチル)−4−イミダゾロン−2−イル]−L−オルニチン]
[6]; [11]
  Akt serine 473 phosphorylation after wortmannin pretreatment: 完全に抑制され
[6]; 300 μM
  enhancement of Akt serine 473 phosphorylation: Aktセリン473残基のリン酸化亢進作用を示した
[1]; [10]
  EC50: 25 µM
[4]
  relaxation of phenylephrine contraction with C-PTIO: 血管の弛緩が大幅に減弱した
  relaxation of phenylephrine contraction with L-NAME: 血管の弛緩がほとんど見られなかった
  vasorelaxing action after endothelium removal: 完全に消失した
  relaxation of phenylephrine contraction with indomethacin: 血管の弛緩に全く影響を与えなかった
  relaxation of phenylephrine contraction with ODQ: 血管の弛緩が大幅に減弱した
[5]; 50 μM
  relaxation rate: 5±2%
[5]; Rattus norvegicus, 50 μM, untreated control (no wortmannin), read-out: relaxation rate
  inhibition at 50 µM: 90 ± 5%
[7]; [11]
  eNOS serine 1177 phosphorylation after wortmannin pretreatment: 完全に抑制された
[7]; 300 μM
  enhancement of eNOS serine 1177 phosphorylation: eNOSセリン1177残基のリン酸化亢進作用を示した

## N=C(N)NCCC[C@H](N)C(=O)O [L−アルギニン]
[8]
  vasodilating action (relaxation of phenylephrine contraction): 血管拡張作用が見出せなかった

## OC[C@H]1OC(O)[C@H](O)[C@@H](O)[C@@H]1O (stereo partly shown) [グルコース]
[8]
  vasodilating action (relaxation of phenylephrine contraction): 血管拡張作用が見出せなかった

## N=C(N)NCCC[C@H](NCC(=O)[C@@H](O)[C@H](O)[C@H](O)CO)C(=O)O [フラクトシルアルギニン]
[8]
  vasodilating action (relaxation of phenylephrine contraction): 血管拡張作用が見出せなかった
